Measured values published in patent publication US20020111274A1, “1-alkyl-3-[1-(substituted phenyl) benzotriazol-6-yl] uracils” (BASF Aktiengesellschaft, priority 2000, published 2002).

Assays:
Parameters in all cases: scale not given here
[1] = tested on: ABUTH Velvetleaf; test: Preemergence herbicidal evaluation, ABUTH; format: in vivo, Abutilon theophrasti, Medic.; conditions: preemergence
Procedure, shortened: (§1)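 Seeds mixed with potting soil in cups, then sprayed preemergence with aqueous acetone test solution at about 0.013 to 0.800 kg per hectare equivalent. Cups kept under standard greenhouse care; plants rated on a visual scale four to five weeks after treatment.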

[2] = tested on: ABUTH Velvetleaf; test: Postemergence herbicidal evaluation, ABUTH; format: in vivo, Abutilon theophrasti, Medic.; conditions: postemergence spray, rated about two-three weeks after treatment
Procedure, shortened: (§2)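 For this test, compound in an 80/20 acetone/water vehicle with 1.0% seed oil was sprayed over two-week-old seedlings at about 0.006 to 0.400 kg per hectare. Injury was assessed visually two to three weeks on.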

[3] = tested on: ORYSAT Rice, Tebonnet; test: Preemergence herbicidal evaluation, ORYSAT; format: in vivo, Oryza sativa, (L.); conditions: preemergence
Procedure, shortened: as §1

[4] = tested on: CASOB Sicklepod; test: Postemergence herbicidal evaluation, CASOB; format: in vivo, Cassia obtusifolia, L.; conditions: postemergence spray, rated about two-three weeks after treatment
Procedure, shortened: as §2

[5] = tested on: ECHOG Barnyardgrass; test: Preemergence herbicidal evaluation, ECHOG; format: in vivo, Echinochloa crus-galli, (L.) Beau; conditions: preemergence
Procedure, shortened: as §1

[6] = tested on: GLXMAW Soybean, Williams; test: Preemergence herbicidal evaluation, GLXMAW; format: in vivo, Glycine max, (L.) Merr. cv Williams; conditions: preemergence
Procedure, shortened: as §1

[7] = tested on: GALAP Galium; test: Postemergence herbicidal evaluation, GALAP; format: in vivo, Galium aparine; conditions: postemergence spray, rated about two-three weeks after treatment
Procedure, shortened: as §2

[8] = tested on: GALAP Galium; test: Preemergence herbicidal evaluation, GALAP; format: in vivo, Galium aparine; conditions: preemergence
Procedure, shortened: as §1

[9] = tested on: AMBEL Ragweed, Common; test: Preemergence herbicidal evaluation, AMBEL; format: in vivo, Ambrosia artemisifolia, L.; conditions: preemergence
Procedure, shortened: as §1

[10] = tested on: IPOHE Morningglory, Ivyleaf; test: Preemergence herbicidal evaluation, IPOHE; format: in vivo, Ipomoea hederacea, (L.) Jacq.; conditions: preemergence
Procedure, shortened: as §1

[11] = tested on: CASOB Sicklepod; test: Preemergence herbicidal evaluation, CASOB; format: in vivo, Cassia obtusifolia, L.; conditions: preemergence
Procedure, shortened: as §1

[12] = tested on: ORYSAT Rice, Tebonnet; test: Postemergence herbicidal evaluation, ORYSAT; format: in vivo, Oryza sativa, (L.); conditions: postemergence spray, rated about two-three weeks after treatment
Procedure, shortened: as §2

[13] = tested on: ZEAMX Corn, Field; test: Postemergence herbicidal evaluation, ZEAMX; format: in vivo, Zea mays, L. (Sammel-Bezeichnung); conditions: postemergence spray, rated about two-three weeks after treatment
Procedure, shortened: as §2

[14] = tested on: TRZAWR Wheat, Winter, cv Riband; test: Preemergence herbicidal evaluation, TRZAWR; format: in vivo, Triticum aestivum; conditions: preemergence
Procedure, shortened: as §1

[15] = tested on: AMBEL Ragweed, Common; test: Postemergence herbicidal evaluation, AMBEL; format: in vivo, Ambrosia artemisifolia, L.; conditions: postemergence spray, rated about two-three weeks after treatment
Procedure, shortened: as §2

[16] = tested on: GLXMAW Soybean, Williams; test: Postemergence herbicidal evaluation, GLXMAW; format: in vivo, Glycine max, (L.) Merr. cv Williams; conditions: postemergence spray, rated about two-three weeks after treatment
Procedure, shortened: as §2

[17] = tested on: IPOHE Morningglory, Ivyleaf; test: Postemergence herbicidal evaluation, IPOHE; format: in vivo, Ipomoea hederacea, (L.) Jacq.; conditions: postemergence spray, rated about two-three weeks after treatment
Procedure, shortened: as §2

[18] = tested on: CHEAL Lambsquarters, Common; test: Preemergence herbicidal evaluation, CHEAL; format: in vivo, Chenopodium album, L.; conditions: preemergence
Procedure, shortened: as §1

[19] = tested on: ECHOG Barnyardgrass; test: Postemergence herbicidal evaluation, ECHOG; format: in vivo, Echinochloa crus-galli, (L.) Beau; conditions: postemergence spray, rated about two-three weeks after treatment
Procedure, shortened: as §2

[20] = tested on: SETVI Foxtail, Green; test: Preemergence herbicidal evaluation, SETVI; format: in vivo, Setaria viridis, (L.) Beau; conditions: preemergence
Procedure, shortened: as §1

[21] = tested on: CHEAL Lambsquarters, Common; test: Postemergence herbicidal evaluation, CHEAL; format: in vivo, Chenopodium album, L.; conditions: postemergence spray, rated about two-three weeks after treatment
Procedure, shortened: as §2

[22] = tested on: ZEAMX Corn, Field; test: Preemergence herbicidal evaluation, ZEAMX; format: in vivo, Zea mays, L. (Sammel-Bezeichnung); conditions: preemergence
Procedure, shortened: as §1

[23] = tested on: SETVI Foxtail, Green; test: Postemergence herbicidal evaluation, SETVI; format: in vivo, Setaria viridis, (L.) Beau; conditions: postemergence spray, rated about two-three weeks after treatment
Procedure, shortened: as §2

[24] = tested on: TRZAWR Wheat, Winter, cv Riband; test: Postemergence herbicidal evaluation, TRZAWR; format: in vivo, Triticum aestivum; conditions: postemergence spray, rated about two-three weeks after treatment
Procedure, shortened: as §2

## COc1ccc(-n2nnc3cc(F)c(-n4c(=O)cc(C(F)(F)F)n(C)c4=O)cc32)cc1 [Example 27]
[1]; rate 0.032 kg/ha
  ABUTH herbicidal rating: 6.0
[1]; rate 0.062 kg/ha
  ABUTH herbicidal rating: 9.0
[1]; rate 0.125 kg/ha
  ABUTH herbicidal rating: 9.0
[2]; 0.008 kg/ha
  Postemergence herbicidal rating ABUTH: 9.0
[2]; 0.016 kg/ha
  Postemergence herbicidal rating ABUTH: 9.0
[2]; 0.032 kg/ha
  Postemergence herbicidal rating ABUTH: 9.0
[3]; rate 0.016 kg/ha
  ORYSAT herbicidal rating: 1.0
[3]; rate 0.032 kg/ha
  ORYSAT herbicidal rating: 2.0
[3]; rate 0.062 kg/ha
  ORYSAT herbicidal rating: 5.0
[3]; rate 0.125 kg/ha
  ORYSAT herbicidal rating: 6.0
[4]; 0.008 kg/ha
  Postemergence herbicidal rating CASOB: 1.0
[4]; 0.016 kg/ha
  Postemergence herbicidal rating CASOB: 1.0
[4]; 0.032 kg/ha
  Postemergence herbicidal rating CASOB: 6.0
[5]; rate 0.016 kg/ha
  ECHCG herbicidal rating: 1.0
[5]; rate 0.032 kg/ha
  ECHCG herbicidal rating: 4.0
[5]; rate 0.062 kg/ha
  ECHCG herbicidal rating: 9.0
[5]; rate 0.125 kg/ha
  ECHCG herbicidal rating: 9.0
[6]; rate 0.016 kg/ha
  GLXMAW herbicidal rating: 1.0
[6]; rate 0.032 kg/ha
  GLXMAW herbicidal rating: 1.0
[6]; rate 0.062 kg/ha
  GLXMAW herbicidal rating: 5.0
[6]; rate 0.125 kg/ha
  GLXMAW herbicidal rating: 9.0
[7]; 0.008 kg/ha
  Postemergence herbicidal rating GALAP: 1.0
[7]; 0.016 kg/ha
  Postemergence herbicidal rating GALAP: 4.0
[7]; 0.032 kg/ha
  Postemergence herbicidal rating GALAP: 9.0
[8]; rate 0.016 kg/ha
  GALAP herbicidal rating: 1.0
[8]; rate 0.032 kg/ha
  GALAP herbicidal rating: 2.0
[8]; rate 0.062 kg/ha
  GALAP herbicidal rating: 9.0
[8]; rate 0.125 kg/ha
  GALAP herbicidal rating: 9.0
[9]; rate 0.016 kg/ha
  AMBEL herbicidal rating: 0.0
[9]; rate 0.032 kg/ha
  AMBEL herbicidal rating: 2.0
[9]; rate 0.062 kg/ha
  AMBEL herbicidal rating: 7.0
[9]; rate 0.125 kg/ha
  AMBEL herbicidal rating: 9.0
[10]; rate 0.016 kg/ha
  IPOHE herbicidal rating: 0.0
[10]; rate 0.032 kg/ha
  IPOHE herbicidal rating: 1.0
[10]; rate 0.062 kg/ha
  IPOHE herbicidal rating: 1.0
[10]; rate 0.125 kg/ha
  IPOHE herbicidal rating: 5.0
[11]; rate 0.016 kg/ha
  CASOB herbicidal rating: 0.0
[11]; rate 0.032 kg/ha
  CASOB herbicidal rating: 1.0
[11]; rate 0.062 kg/ha
  CASOB herbicidal rating: 2.0
[11]; rate 0.125 kg/ha
  CASOB herbicidal rating: 9.0
[12]; 0.008 kg/ha
  Postemergence herbicidal rating ORYSAT: 2.5
[12]; 0.016 kg/ha
  Postemergence herbicidal rating ORYSAT: 4.5
[12]; 0.032 kg/ha
  Postemergence herbicidal rating ORYSAT: 4.5
[13]; 0.008 kg/ha
  Postemergence herbicidal rating ZEAMX: 4.5
[13]; 0.016 kg/ha
  Postemergence herbicidal rating ZEAMX: 5.0
[13]; 0.032 kg/ha
  Postemergence herbicidal rating ZEAMX: 5.5
[14]; rate 0.016 kg/ha
  TRZAWR herbicidal rating: 1.0
[14]; rate 0.032 kg/ha
  TRZAWR herbicidal rating: 2.0
[14]; rate 0.062 kg/ha
  TRZAWR herbicidal rating: 3.0
[14]; rate 0.125 kg/ha
  TRZAWR herbicidal rating: 2.0
[15]; 0.008 kg/ha
  Postemergence herbicidal rating AMBEL: 5.0
[15]; 0.016 kg/ha
  Postemergence herbicidal rating AMBEL: 9.0
[15]; 0.032 kg/ha
  Postemergence herbicidal rating AMBEL: 9.0
[16]; 0.008 kg/ha
  Postemergence herbicidal rating GLXMAW: 5.0
[16]; 0.016 kg/ha
  Postemergence herbicidal rating GLXMAW: 6.0
[16]; 0.032 kg/ha
  Postemergence herbicidal rating GLXMAW: 6.0
[17]; 0.008 kg/ha
  Postemergence herbicidal rating IPOHE: 9.0
[17]; 0.016 kg/ha
  Postemergence herbicidal rating IPOHE: 9.0
[17]; 0.032 kg/ha
  Postemergence herbicidal rating IPOHE: 9.0
[18]; rate 0.016 kg/ha
  CHEAL herbicidal rating: 9.0
[18]; rate 0.032 kg/ha
  CHEAL herbicidal rating: 9.0
[18]; rate 0.062 kg/ha
  CHEAL herbicidal rating: 9.0
[18]; rate 0.125 kg/ha
  CHEAL herbicidal rating: 9.0
[19]; 0.008 kg/ha
  Postemergence herbicidal rating ECHCG: 1.0
[19]; 0.016 kg/ha
  Postemergence herbicidal rating ECHCG: 1.0
[19]; 0.032 kg/ha
  Postemergence herbicidal rating ECHCG: 2.0
[20]; rate 0.016 kg/ha
  SETVI herbicidal rating: 9.0
[20]; rate 0.032 kg/ha
  SETVI herbicidal rating: 9.0
[20]; rate 0.062 kg/ha
  SETVI herbicidal rating: 9.0
[20]; rate 0.125 kg/ha
  SETVI herbicidal rating: 9.0
[21]; 0.008 kg/ha
  Postemergence herbicidal rating CHEAL: 4.0
[21]; 0.016 kg/ha
  Postemergence herbicidal rating CHEAL: 7.0
[21]; 0.032 kg/ha
  Postemergence herbicidal rating CHEAL: 9.0
[22]; rate 0.016 kg/ha
  ZEAMX herbicidal rating: 2.0
[22]; rate 0.032 kg/ha
  ZEAMX herbicidal rating: 4.0
[22]; rate 0.062 kg/ha
  ZEAMX herbicidal rating: 7.0
[22]; rate 0.125 kg/ha
  ZEAMX herbicidal rating: 7.0
[23]; 0.008 kg/ha
  Postemergence herbicidal rating SETVI: 7.0
[23]; 0.016 kg/ha
  Postemergence herbicidal rating SETVI: 4.0
[23]; 0.032 kg/ha
  Postemergence herbicidal rating SETVI: 7.0
[24]; 0.008 kg/ha
  Postemergence herbicidal rating TRZAWR: 2.0
[24]; 0.016 kg/ha
  Postemergence herbicidal rating TRZAWR: 4.0
[24]; 0.032 kg/ha
  Postemergence herbicidal rating TRZAWR: 4.5
